{"source": "ChEMBL document CHEMBL1128889", "about": "“Preparation and biological evaluation of -Trifluoromethyl-,-unsaturated carbonyl compounds” (Bioorg Med Chem Lett, 1995)", "test": "In vitro viable cell inhibitory towards interleukin-2 antiproducing effect was determined.", "format": "functional", "data": [{"smiles": "CC1(C)COC(=O)[C@@H]1OC(=O)/C=C/C(F)(F)F", "values": [{"measurement": "IC50", "result": 3.71, "unit": "µg/mL"}]}, {"smiles": "CC1(C)OC[C@H]([C@H](OC(=O)/C=C/C(F)(F)F)[C@@H](OC(=O)/C=C/C(F)(F)F)[C@H]2COC(C)(C)O2)O1", "values": [{"measurement": "IC50", "result": 0.8, "unit": "µg/mL"}]}]}
